Results published in patent publication US5089476A, “Glutamic acid derivatives” (Roussel Uclaf, priority 1987, dated 1992).

B1: IFN-γ: interferon-γ (10^3 U/ml) added to monocyte cultures to test synergy (protein, UniProt P01579 24-161, looked up)
Interferon gamma: QDPYVKEAENLKKYFNAGHSDVADNGTLFLGILKNWKEESDRKIMQSQIVSFYFKLFKNFKDDQSIQKSVETIKEDMNVKFFNSNKKKRDDFEKLTNYSVTDLNVQRKAIHELIQVMAELSPAAKTGKRKRSQMLFRG

What was measured:
Type in all cases: cell-based, human
monocytes = experiment: Stimulation of monocytic cells with an immunostimulant; conditions: for stimulation of monocytes: adherent blood monocytes of normal donors, cultured 24 or 48 hours with test product; for synergy with interferon-γ: in the presence of interferon-γ 10^3 U/ml, a dose at which IFN-γ alone was inactive
Description: (§1) The mononuclear cells of the circulating blood of normal donors were separated by the classical technique described by Boyum using a Ficoll gradient. After being washed, the mononuclear cells were incubated at 37° C. for 1 hour in the proportion of 5×10^6 monocytes (NSE^+ cells) per ml of culture medium, 5 ml per culture bottle. The culture medium used in this experiment was composed of RPMI 1640 to which antibiotics and HEPES buffer had been added. After one hour, the non-adherent cells were removed by washing the bottles with medium previously brought to 37 C, and the adherent cells, composed essentially of monocytes (>90%), were cultured again in the presence of different amounts of test products in a PBS medium (Dulbecco) without Ca^2+ or Mg^2+. Culturing was continued for 24 or 48 hours and the cell supernatants were then withdrawn, centrifuged, aliquoted and stored either at -80° C. or at -20° C. The culture supernatants were replaced in the bottles by the same amount of pyrogen-free distilled water to Lyse the cells. The Lysate was recovered, aliquoted and also stored at -20° C.

[1] = system: interleukin-1 (IL-1) production by monocytes; experiment: Interleukin-1 (IL-1) test on monocyte culture supernatants (mouse thymocyte co-mitogenic bioassay); conditions: thymidine incorporation by C3H/HeJ mouse thymocytes with PHA
Description: as §1, with “The Lysate was recovered, aliquoted and also stored at -20° C.” left out
This test was first described by Gery et al in 1972 [Gery et al, 1972 Potentiation of the T Lymphocyte response to mitogens. […] The results were expressed as the difference between the pulses per minute incorporated by the cultures in the presence of supernatants and the pulses per minute incorporated by the control cultures.

[2] = system: tumor necrosis factor (TNF) production by monocytes; experiment: Tumor Necrosis Factor (TNF) test on monocyte culture supernatants (toxicity on L-929 target cells); conditions: toxicity on L-929 cells with actinomycin D
Description: The mononuclear cells of the circulating blood of normal donors were separated by the classical technique described by Boyum using a Ficoll gradient. After being washed, the mononuclear cells were incubated at 37° C. for 1 hour in the proportion of 5×10^6 monocytes (NSE^+ cells) per ml of culture medium, 5 ml per culture bottle. The culture medium used in this experiment was composed of RPMI 1640 to which antibiotics and HEPES buffer had been added. After one hour, the non-adherent cells were removed by washing the bottles with medium previously brought to 37 C, and the adherent cells, composed essentially of monocytes (>90%), were cultured again in the presence of different amounts of test products in a PBS medium (Dulbecco) without Ca^2+ or Mg^2+. Culturing was continued for 24 or 48 hours and the cell supernatants were then withdrawn, centrifuged, aliquoted and stored either at -80° C. or at -20° C. The culture supernatants were replaced in the bottles by the same amount of pyrogen-free distilled water to Lyse the cells. The Lysate was recovered, aliquoted and also stored at -20° C. […]
The technique was sensitized by adding actinomycin D to the test. […] After 24 hours of culturing, the number of unlysed viable cells was measured by staining the plates with crystal violet and measuring the optical density of different wells on a multiscan reader.

| Molecule | stimulation of monocytes (monocytes) | synergy with interferon-γ (monocytes) | IL-1 production by monocytes [1] | TNF production by monocytes [2] | activity of IFN-γ alone (monocytes; interferon-γ 10^3 U/ml alone) |
| --- | --- | --- | --- | --- | --- |
| C=C(CC(N)C(=O)O)CC(NC(=O)CC[C@@H](N)C(=O)O)C(=O)O (stereo partly drawn) [Example 1, 2-amino-6-(γ-D-glutamylamino)-4-methylene-heptanedioic acid] | stimulated monocytes | synergy | stimulated | stimulated |  |
| C=C(CC(NC(=O)CC[C@@H](N)C(=O)O)C(=O)O)CC(NC(=O)[C@H](C)N)C(=O)O (stereo partly drawn) [Example 2, 2-(L-Alanylamino)-6-(γ-D-glutamylamino)-4-methyleneheptanedioic acid] | stimulated monocytes | synergy | stimulated | stimulated |  |
| B1 |  |  |  |  | inactive |
